# According to US12054447B2, “PCNA inhibitors” (City of Hope, priority 2015, dated 2024):
# What was measured:
# Assay in all cases: NCI-60 panel test
# Assay type in all cases: cell-based
# SW-620 = settings: Homo sapiens; SW-620, NCI-60 5-dose study
# Method: (§1) FIG. 7. NCI-60 panel test. The effect of AOH1160 on growth of the NCI-60 panel, which consists of 60 cancer cell lines representing 9 major cancer types, was tested in a 5-dose study. Shown are the Log IC50 values determined for each cell line. […] This study was performed by the National Institute of Cancer.
# (§2) As observed in FIG. 7, the effect of AOH1160 on growth of the NCI-60 panel, which consists of 60 cancer cell lines representing 9 major cancer types, was tested in a 5-dose study. Shown are the Log IC50 values determined for each cell line.
# RPMI-8226 = settings: Homo sapiens; RPMI-8226, NCI-60 5-dose study
# Method: as §1, §2
# HL-60(TB) = settings: Homo sapiens, NCI-60 5-dose study
# Method: as §1, §2
# DU-145 = settings: Homo sapiens; DU-145, NCI-60 5-dose study
# Method: as §1, §2
# HS 578T = settings: Homo sapiens, NCI-60 5-dose study
# Method: as §1, §2
# OVCAR-5 = settings: Homo sapiens; OVCAR-5, NCI-60 5-dose study
# Method: as §1, §2
# T-47D = settings: Homo sapiens, T47D, NCI-60 5-dose study
# Method: as §1, §2
# SF-539 = settings: Homo sapiens; SF-539, NCI-60 5-dose study
# Method: as §1, §2
# M14 = settings: Homo sapiens; M14, NCI-60 5-dose study
# Method: as §1, §2
# U251 = settings: Homo sapiens, U-251; U251, NCI-60 5-dose study
# Method: as §1, §2
# ACHN = settings: Homo sapiens, NCI-60 5-dose study
# Method: as §1, §2
# NCI/ADR-RES = settings: Homo sapiens, NCI-60 5-dose study
# Method: as §1, §2
# NCI-H460 = settings: Homo sapiens; NCI-H460, NCI-60 5-dose study
# Method: as §1, §2
# HT29 = settings: Homo sapiens, HT-29; HT29, NCI-60 5-dose study
# Method: as §1, §2
# MDA-MB-468 = settings: Homo sapiens; MDA-MB-468, NCI-60 5-dose study
# Method: as §1, §2
# LOX IMVI = settings: Homo sapiens, NCI-60 5-dose study
# Method: as §1, §2
# RXF 393 = settings: Homo sapiens; RXF 393, NCI-60 5-dose study
# Method: as §1, §2
# MALME-3M = settings: Homo sapiens, NCI-60 5-dose study
# Method: as §1, §2
# UO-31 = settings: Homo sapiens; UO-31, NCI-60 5-dose study
# Method: as §1, §2
# KM12 = settings: Homo sapiens; KM12, NCI-60 5-dose study
# Method: as §1, §2
# OVCAR-8 = settings: Homo sapiens; OVCAR-8, NCI-60 5-dose study
# Method: as §1, §2
# SK-MEL-5 = settings: Homo sapiens; SK-MEL-5, NCI-60 5-dose study
# Method: as §1, §2
# BT-549 = settings: Homo sapiens; BT-549, NCI-60 5-dose study
# Method: as §1, §2
# NCI-H522 = settings: Homo sapiens; NCI-H522, NCI-60 5-dose study
# Method: as §1, §2
# K-562 = settings: Homo sapiens, K562; K-562, NCI-60 5-dose study
# Method: as §1, §2
# OVCAR-3 = settings: Homo sapiens; OVCAR-3, NCI-60 5-dose study
# Method: as §1, §2
# SK-MEL-28 = settings: Homo sapiens; SK-MEL-28, NCI-60 5-dose study
# Method: as §1, §2
# OVCAR-4 = settings: Homo sapiens; OVCAR-4, NCI-60 5-dose study
# Method: as §1, §2
# SNB-19 = settings: Homo sapiens; SNB-19, NCI-60 5-dose study
# Method: as §1, §2
# NCI-H23 = settings: Homo sapiens; NCI-H23, NCI-60 5-dose study
# Method: as §1, §2
Compound,GI50 (SW-620) [nM],GI50 (RPMI-8226) [nM],GI50 (HL-60(TB)) [nM],GI50 (DU-145) [nM],GI50 (HS 578T) [nM],GI50 (OVCAR-5) [nM],GI50 (T-47D) [nM],GI50 (SF-539) [nM],GI50 (M14) [nM],GI50 (U251) [nM],GI50 (ACHN) [nM],GI50 (NCI/ADR-RES) [nM],GI50 (NCI-H460) [nM],GI50 (HT29) [nM],GI50 (MDA-MB-468) [nM],GI50 (LOX IMVI) [nM],GI50 (RXF 393) [nM],GI50 (UO-31) [nM],GI50 (KM12) [nM],GI50 (OVCAR-8) [nM],further results
O=C(CNC(=O)c1cccc2ccccc12)Nc1ccccc1Oc1ccccc1 [AOH1160],282,316,269,324,363,525,537,240,275,331,832,240,331,288,324,309,186,646,288,316,GI50 (MALME-3M): 10 µM; GI50 (SK-MEL-5): 0.263 µM; GI50 (BT-549): 407 nM; GI50 (NCI-H522): 151 nM; GI50 (K-562): 70.8 nM; GI50 (OVCAR-3): 191 nM; GI50 (SK-MEL-28): 813 nM; GI50 (OVCAR-4): 4570 nM; GI50 (SNB-19): 457 nM; GI50 (NCI-H23): 661 nM
O=C(CNC(=O)c1cccc2ccccc12)Nc1ccccc1Oc1ccc(O)cc1 [PCNA1],912,977,708,1150,1350,6310,1550,692,692,1410,1860,1200,977,1000,550,1740,501,1780,912,1320,GI50 (SK-MEL-5): 25.1 µM; GI50 (BT-549): 1620 nM; GI50 (NCI-H522): 851 nM; GI50 (K-562): 501 nM; GI50 (OVCAR-3): 741 nM; GI50 (SK-MEL-28): 851 nM; GI50 (OVCAR-4): 2820 nM; GI50 (SNB-19): 1410 nM; GI50 (NCI-H23): 2140 nM
O=C(CNC(=O)c1cccc2ccccc12)Nc1ccccc1Oc1cccc(O)c1 [PCNA2],3090,8130,1320,9550,5750,25100,9770,4070,1550,8320,17400,7940,5750,21400,3550,15100,4170,16600,2190,11500,GI50 (MALME-3M): 5.89 µM; GI50 (SK-MEL-5): 25.1 µM; GI50 (BT-549): 25100 nM; GI50 (NCI-H522): 1620 nM; GI50 (K-562): 1050 nM; GI50 (OVCAR-3): 1510 nM; GI50 (SK-MEL-28): 1860 nM; GI50 (OVCAR-4): 25100 nM; GI50 (SNB-19): 8710 nM; GI50 (NCI-H23): 15800 nM
COc1ccc(Oc2ccccc2NC(=O)CNC(=O)c2cccc3ccccc23)cc1 [PCNA6],676,1120,617,1020,1700,2000,2510,575,550,1050,1510,427,851,575,457,1350,490,1480,575,1150,GI50 (MALME-3M): 25.1 µM; GI50 (SK-MEL-5): 25.1 µM; GI50 (BT-549): 1120 nM; GI50 (NCI-H522): 195 nM; GI50 (K-562): 145 nM; GI50 (OVCAR-3): 389 nM; GI50 (SK-MEL-28): 380 nM; GI50 (OVCAR-4): 2240 nM; GI50 (SNB-19): 1230 nM; GI50 (NCI-H23): 1290 nM
COc1cccc(Oc2ccccc2NC(=O)CNC(=O)c2cccc3ccccc23)c1 [PCNA7/ AOH1996],166,955,81.3,708,380,1120,138,224,158,240,398,240,295,110,331,269,166,1820,191,692,GI50 (MALME-3M): 17 µM; GI50 (SK-MEL-5): 0.219 µM; GI50 (BT-549): 295 nM; GI50 (NCI-H522): 178 nM; GI50 (K-562): 129 nM; GI50 (OVCAR-3): 100 nM; GI50 (SK-MEL-28): 4370 nM; GI50 (OVCAR-4): 776 nM; GI50 (SNB-19): 617 nM; GI50 (NCI-H23): 741 nM
